We go through 28 compounds from PubChem BioAssay (NCI).

The GI50 is the concentration that inhibits growth by half. As a reminder, the TGI is the concentration giving total growth inhibition. Low values mean more potent growth arrest, high ones less potent growth arrest.

SMILES strings stand for the structures.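 Where inhibition never reached the appropriate level, the endpoint shown equals the highest concentration tested. Otherwise, values were interpolated linearly from a five-concentration, 48-hour dose response in 96-well plates. GI50 = concentration required for 50% inhibition of growth. TGI marks complete inhibition of growth.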

In the assay the test system is HS 578T breast. Put plainly: DTP human tumour cell line panel, 48 h.
Turning to `O=C1C(Nc2cccc(O)c2)=C(Sc2ccc(Cl)cc2)C(=O)N1Cc1ccccc1`, the GI50 was 13.3 µM and the TGI amounted to 58.1 µM. The corresponding values for `CCCCCCCCCCC(CN(CC)CC)C(O)c1ccccc1` (stereo not given) are 1.75 µM and 4.07 µM.

As for `C=C1C(=O)O[C@H]2[C@H]1CC/C(COC(=O)NCc1cccc(OC)c1)=C\CC[C@@]1(C)O[C@@H]21`, the GI50 was 13 µM and the TGI was 37.8 µM. As for `C=C(CN(CCN1CCOCC1)CC(=C)c1ccc(C(=O)Nc2ccccc2N)cc1)c1ccc(C(=O)Nc2ccccc2N)cc1`, the GI50 was 5.55 µM and the TGI came out at 42.8 µM. For the compound `Clc1ccc2c(NCCN3CCN(c4ccnc(N5CCCC5)n4)CC3)ccnc2c1`, the GI50 is 3.54 µM and the concentration for total growth inhibition (TGI) turned out to be 19.8 µM. In the case of `c1cc(-c2cnn3nc(N4CCOCC4)ccc23)nc(NC2CC2)n1`, the GI50 is 8.12 µM and the TGI is more than 22.8 µM. As to `Cc1ccc(C(=O)Nc2ccccc2C(=O)N/N=C(\c2ccccc2)c2ccccn2)cc1`, the GI50 is 9.13 µM and the TGI was more than 100 µM. As for `NCCCn1c2c(c3ccc([N+](=O)[O-])cc3c1=O)C(=O)c1cc(Cl)ccc1-2`, the GI50 was 1.11 µM and the TGI was 2.8 µM. Regarding `CCN1CCN(c2nc(C)cc(N(CCCNc3ccnc4cc(Cl)ccc34)Cc3ccco3)n2)CC1`, the GI50 is 2.87 µM and the TGI was found to be 9.97 µM.

As for `C#CCOc1cccc(Nc2ncnc3c2ncn3C2CCN(C(=O)CCl)C2)c1` (stereo not given), the GI50 is 24.7 µM and the TGI was 91.5 µM.

In the case of `O=C1C(Cl)=C(Nc2ccc3c(c2NC2=C(Cl)C(=O)c4ccccc4C2=O)C(=O)c2ccccc2C3=O)C(=O)c2ccccc21`, the GI50 was 2.1 µM and the TGI was determined as 6.88 µM. For `CCN1CCN(c2cc(C)nc(NCc3cc(Nc4ccnc5cc(Cl)ccc45)ccc3F)n2)CC1`, the GI50 is 5.34 µM and the TGI amounted to 50.6 µM. The corresponding values for `COc1cc2c(cc1-c1c(C)noc1C)ncc1[nH]c(=O)n([C@H](C)c3ccccn3)c12` are 0.295 µM and more than 100 µM. With `CO[C@H]1/C=C/C[C@H](C)[C@@H](C)S(=O)(=O)NC(=O)c2ccc3c(c2)N(C[C@@H]2CC[C@H]21)C[C@@]1(CCCc2cc(Cl)ccc21)CO3`, the GI50 was 1.54 µM and the TGI stood at 7.24 µM.

Turning to `COc1cccc2cc(N(C)c3nc(C)nc4ccsc34)ccc12`, the GI50 is less than 0.01 µM and the TGI stood at 22.4 µM. As for `O=C(Nc1ccc([N+](=O)[O-])cc1)c1cc2ccccc2cc1O`, the GI50 is 0.618 µM and the TGI is more than 100 µM.

For the compound `Cc1sc2c(c1C)C(c1ccc(Cl)cc1)=N[C@@H](CC(=O)Nc1ccc(O)cc1)c1nnc(C)n1-2`, the GI50 is 0.169 µM and the TGI stood at 27.2 µM. With `OCCCCC#Cc1ccccc1C#Cc1cccs1`, the GI50 was 14.9 µM and the TGI was found to be 39.1 µM. For the compound `Cc1cc(Cl)ccc1Nc1nc(C(F)(F)F)ccc1C(=O)N/N=C/c1ccc(N(C)C)cc1`, the GI50 was 2.7 µM and the TGI is more than 100 µM. On to `CN(C)CCN1C(=O)c2cccc3c(-c4ccc5ncn(C6CCCCC6)c5c4)ccc(c23)C1=O`, for which the GI50 is 3.51 µM and the TGI came to 20.8 µM. `COc1cc(/C=N/O)nc(-c2ccccn2)c1`: the GI50 was 3.76 µM and the TGI is more than 100 µM. Turning to `COc1ccc2nc(C3=CN(C4OC(CO)C(O)C(O)C4O)C4C=CC=CC34)sc2c1` (stereo not given), the GI50 was 34.4 µM and the TGI came to 94.4 µM. Take `O=C1/C(=C/c2ccc(C(F)(F)F)cc2)COc2ccc(O)cc21`: the GI50 is 2.7 µM. As to `O=C(Nn1c2c(sc1=NC1CC1)C(=O)c1ccccc1C2=O)c1cc2ccc1CCc1ccc(cc1)CC2`, the GI50 was 2.09 µM and the TGI was found to be 6.03 µM.

Take `CCOC(=O)c1cn2ncnc(Oc3ccc(NC(=O)NCCN(CC)CC)c(Cl)c3)c2c1C`: the GI50 was 3.88 µM and the TGI stood at 21.7 µM. For `C[C@@H]1CCC2[C@@H](C)[C@H](OC(=O)CCC(=O)NCCNC(=O)Cc3cc(=O)oc4cc(N(C)C)ccc34)O[C@@H]3O[C@]4(C)CC[C@@H]1C23OO4` (stereo not given in full), in that order: 3.21 µM and more than 33.1 µM. For the compound `ClC1=C(Cl)C(Cl)=C(Cl)C1=Cc1ccc(Cl)cc1Cl`, the GI50 is 0.522 µM and the TGI is more than 100 µM.

As for `CC1CCC(C#N)(NOC2=NCCN2)CC1` (stereo not given), the GI50 was more than 100 µM and the TGI is more than 100 µM.
